Consider one molecule from ChEMBL document CHEMBL3758173, “Identification of β-Amino alcohol grafted 1,4,5 trisubstituted 1,2,3-triazoles as potent antimalarial agents” (Eur J Med Chem, 2016).

Series [1] in a line: Selectivity index, ratio of CC50 for monkey kidney VERO cells to IC50 for chloroquine resistant Plasmodium falciparum K1 infected in human erythrocytes. It counts as functional.
Series [2] can be described thus: Tmax in Sprague-Dawley rat at 100 mg/kg, po after 0 to 48 hrs by LC-MS/MS analysis. It counts as ADME, organism-based. Conditions: in vivo.
The subject of series [3] is Rattus norvegicus. In words: AUC(last) in Sprague-Dawley rat at 100 mg/kg, po after 0 to 48 hrs by LC-MS/MS analysis. The format is ADME, organism-based. Details: dose 100 mg/kg, time 0 - last, route oral. Conditions: in vivo.
Series [4] has as its system Mus musculus. The experiment in a line: Toxicity in multidrug-resistant Plasmodium yoelii nigeriensis infected Swiss mouse assessed as mouse survival at 100 mg/kg/day, po for 4 days. The format is organism-based. Conditions: in vivo, 96 h.
In series [5] the test system is Rattus norvegicus. The experiment in a line: Apparent oral volume of distribution in Sprague-Dawley rat at 100 mg/kg, po after 0 to 48 hrs by LC-MS/MS analysis. It counts as ADME, organism-based. Conditions: in vivo.
Series [6] in a line: Cytotoxicity against monkey kidney Vero cells by resazurin assay. As to conditions: chlorocebus sabaeus. It counts as cell-based.
The nature of series [7]: Apparent oral clearance in Sprague-Dawley rat at 100 mg/kg, po after 0 to 48 hrs by LC-MS/MS analysis. The format is ADME, organism-based. Conditions: in vivo.
In series [8] the test system is MCF7. In words: Upregulation of p53 level in human MCF7 cells at antiplasmodial IC50 after 48 hrs by immnublotting method. It counts as functional, cell-based. As to conditions: TDE = time-dependent effect.
The test system of series [9] is Plasmodium falciparum. In words: Antiplasmodial activity against chloroquine resistant Plasmodium falciparum K1 infected in human erythrocytes incubated for 72 hrs by SYBR Green1-based fluorescence analysis. Conditions: K1, 72 h. The format is functional, organism-based.
For series [10], the system named is MCF7. In words: Induction of p53 protein expression in human MCF7 cells at antiplasmodial IC50 after 36 hrs by luciferase reporter assay relative to control relative to doxorubicin. The format is functional.
Series [11] is described as follows: Cmax in Sprague-Dawley rat at 100 mg/kg, po after 0 to 48 hrs by LC-MS/MS analysis. It counts as ADME, organism-based. Details: dose 100 mg/kg, route oral. As to conditions: in vivo.
Series [12] in a line: Selectivity index, ratio of CC50 for monkey kidney VERO cells to IC50 for chloroquine sensitive Plasmodium falciparum 3D7 infected in human erythrocytes. It counts as functional.
Series [13] in a line: Mean residence time(last) in Sprague-Dawley rat at 100 mg/kg, po after 0 to 48 hrs by LC-MS/MS analysis. It counts as ADME, organism-based. As to conditions: in vivo.
The subject of series [14] is Plasmodium falciparum. In words: Antiplasmodial activity against chloroquine sensitive Plasmodium falciparum 3D7 infected in human erythrocytes incubated for 72 hrs by SYBR Green1-based fluorescence analysis. The format is functional, organism-based. As to conditions: 3D7, 72 h.
Series [15] has as its system Plasmodium yoelii nigeriensis. The experiment in a line: Antiplasmodial activity against multidrug-resistant Plasmodium yoelii nigeriensis infected in Swiss mouse assessed as suppression of parasitaemia at 100 mg/kg, po for 4 days by Geimsa-staining based analysis. The format is functional. As to conditions: 96 h.
The nature of series [16]: Resistance index, ratio of IC50 for chloroquine resistant Plasmodium falciparum K1 infected in human erythrocytes to IC50 for chloroquine sensitive Plasmodium falciparum 3D7 infected in human erythrocytes. It counts as functional.
The subject of series [17] is MCF7. The experiment in a line: Induction of p53 protein expression in human MCF7 cells at antiplasmodial IC50 after 36 hrs by luciferase reporter assay relative to control. It counts as functional. (Reporter assays use an easily measured gene product as a stand-in for the process of interest.)

Each structure is given as a SMILES string.

As usually defined, the Tmax is the time at which the peak concentration occurs. By Vd/F is commonly meant the apparent distribution volume after extravascular dosing. In general, CC50 refers to the concentration that lowers cell viability or growth by half. As usually defined, the CL/F is the apparent clearance, not corrected for the fraction that reaches the circulation. What is called IC50 is the concentration at which inhibition is half-maximal. Broadly, the Cmax is the highest concentration seen after dosing. The MRT last is a mean duration of stay, worked out from the concentration-time curve. For orientation: inhibition in vivo means the share of the control response that was lost under treatment.

With `CC(C)c1ccc(-c2c(C(O)(CNc3ccc(Br)cc3)c3ccc(Cl)cc3)nnn2Cc2ccccc2)cc1` (configuration not stated), the “Ratio CC50/IC50” value in series [1] is reported as 73.26; in series [12] it was 515.3. For the same molecule, in series [2], the Tmax amounted to 4 h. For the same molecule, in [3], the AUClast came out at 1590 ng·h/mL. Further, the Activity entry in [4] is “Non-toxic”; in [8] it was “tde”. In addition, the Vd/F in [5] is 1837.17 L/kg. Besides, in series [6], half-maximal cytotoxicity (CC50) was put at 155 µM. Moreover, the CL/F in [7] was 741 mL/min/kg. In addition, the IC50 in [9] was found to be 2110 nM; in series [14], 300 nM. The “fold change (FC)” value in [10] came to 10; in [17], 20. For the same molecule, the highest level in series [11] (Cmax) was 212 ng/mL. The same molecule gave a mean residence time MRT last in [13] of 15 h. Also, the inhibition in vivo at 100 mg/kg in series [15] came to 86.8%. In addition, in [16], the “Ratio IC50” value is listed as over 7.03.
